What was measured:
[1] = Inhibition of IL1-beta induced MMP3 expression levels in human chondrocytes assessed as MMP3 levels incubated for 2hrs followed by IL1-beta stimulation and measured after overnight incubation by LANCE assay relative to control; type: functional, Chondrocyte
[2] = Effect on Wnt signaling pathway in human SW480 cells harbouring TCF/LEF luciferase reporter gene and SP5-Luc reporter gene incubated for 36 to 48 hrs by luminescence assay; type: cell-based
[3] = biological target: Dual specificity tyrosine-phosphorylation-regulated kinase 1A (Homo sapiens, UniProt Q13627); experiment: Inhibition of recombinant DYRK1A (unknown origin) using Ser/Thr 18 peptide as substrate incubated for 1 hr in presence of ATP by FRET assay
[4] = Inhibition of IL1-beta induced MMP3 expression levels in human chondrocytes assessed as MMP3 levels incubated for 2hrs followed by IL1-beta stimulation and measured after overnight incubation by LANCE assay; type: functional, cell-based; conditions: Chondrocyte
[5] = biological target: Dual specificity protein kinase CLK3 (Homo sapiens, UniProt P49761); experiment: Inhibition of recombinant CLK3 (unknown origin) using Ser/Thr 18 peptide as substrate incubated for 1 hr in presence of ATP by FRET assay
Dual specificity protein kinase CLK3, sequence (P49761 whole entry): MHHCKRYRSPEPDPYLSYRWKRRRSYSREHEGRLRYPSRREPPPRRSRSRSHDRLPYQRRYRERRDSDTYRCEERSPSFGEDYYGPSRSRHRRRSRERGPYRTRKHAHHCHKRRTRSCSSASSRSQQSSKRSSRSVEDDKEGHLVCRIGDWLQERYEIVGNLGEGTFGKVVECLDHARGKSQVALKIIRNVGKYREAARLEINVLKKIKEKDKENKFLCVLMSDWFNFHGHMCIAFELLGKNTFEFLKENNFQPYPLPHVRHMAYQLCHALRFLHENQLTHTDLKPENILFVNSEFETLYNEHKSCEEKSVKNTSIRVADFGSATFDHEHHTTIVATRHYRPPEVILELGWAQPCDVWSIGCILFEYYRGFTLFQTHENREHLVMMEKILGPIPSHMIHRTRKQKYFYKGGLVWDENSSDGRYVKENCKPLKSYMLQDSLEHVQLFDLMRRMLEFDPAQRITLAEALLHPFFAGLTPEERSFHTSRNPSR

[6] = Induction of chondrogenesis in human MSC assessed as maximum activity at 100 nM incubated for 6 days by rhodamine B and Nile red staining based imaging analysis relative to control; type: functional; conditions: BMMSC, 144 h, time 6 day
[7] = biological target: Dual specificity protein kinase CLK2 (Homo sapiens, UniProt P49760); experiment: Inhibition of recombinant CLK2 (unknown origin) using Ser/Thr 6 peptide as substrate incubated for 1 hr in presence of ATP by FRET assay
Dual specificity protein kinase CLK2, sequence (P49760 whole entry): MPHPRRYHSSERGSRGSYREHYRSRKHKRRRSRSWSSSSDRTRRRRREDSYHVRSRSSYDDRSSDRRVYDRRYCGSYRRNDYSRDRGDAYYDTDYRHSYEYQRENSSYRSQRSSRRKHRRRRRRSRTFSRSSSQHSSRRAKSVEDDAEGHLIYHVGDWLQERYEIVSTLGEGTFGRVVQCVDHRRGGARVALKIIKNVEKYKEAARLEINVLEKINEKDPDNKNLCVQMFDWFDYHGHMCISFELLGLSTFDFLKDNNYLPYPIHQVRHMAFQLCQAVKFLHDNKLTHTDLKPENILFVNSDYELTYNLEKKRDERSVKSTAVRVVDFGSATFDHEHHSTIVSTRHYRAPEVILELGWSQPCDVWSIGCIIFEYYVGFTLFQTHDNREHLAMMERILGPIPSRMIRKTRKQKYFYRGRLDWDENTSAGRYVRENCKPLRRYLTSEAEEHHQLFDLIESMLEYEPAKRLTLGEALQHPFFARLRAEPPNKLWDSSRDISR

[8] = Induction of chondrogenesis in human MSC assessed as maximum activity at 30 nM incubated for 6 days by rhodamine B and Nile red staining based imaging analysis relative to control; type: functional; conditions: BMMSC, 144 h, time 6 day
[9] = Induction of chondrogenesis in human MSC assessed as incubated for 6 days by rhodamine B and Nile red staining based imaging analysis; type: functional; conditions: bmmsc
[10] = Induction of chondrogenesis in human MSC assessed as maximum activity at 10 nM incubated for 6 days by rhodamine B and Nile red staining based imaging analysis relative to control; type: functional; conditions: BMMSC, 144 h, time 6 day

SMILES | Imax [1] [%] | EC50 [2] [nM] | EC50 [3] [nM] | EC50 [4] [nM] | EC50 [5] [nM] | Emax at 0.1 µM [6] [%] | EC50 [7] [nM] | Emax at 0.03 µM [8] [%] | EC50 [9] [nM] | Emax at 0.01 µM [10] [%]
O=C(Nc1c[nH]nc1C(=O)Nc1ccc(N2CCCCC2)nc1)c1cncc(OC2CCNCC2)c1 | 71 | 662 | 10 | 3000 | – | – | – | – | – | –
Oc1cncc(-c2ccc3[nH]nc(-c4nc5c(-c6cccc(F)c6)ccnc5[nH]4)c3c2)c1 | – | 11 | 12 | – | 45 | 52.2 | 17 | – | – | –
c1cnc2cc(-c3n[nH]c4ccc(-c5cncc(CN6CCCCC6)c5)cc34)[nH]c2c1 | 100 | 165 | 5 | 319 | – | – | – | – | – | –
O=C(N[C@H]1C[C@@H]1c1ccccc1)c1n[nH]c2ccc(-c3cccnc3)cc12 | – | 1390 | 4 | 1.6 | 6150 | – | 10 | – | – | –
Cn1ncc(-c2ccc3cnc(NC(=O)C4CCN(C(=O)c5ccccc5)CC4)cc3c2)c1CN1CCCCC1 | 51 | 706 | 3 | 35 | – | – | – | – | – | –
Cc1n[nH]c2ccc(-c3cncc(N[C@H](CO)Cc4cccc(C(F)(F)F)c4)n3)cc12 | – | 809 | 45 | 3000 | 3950 | – | 37 | – | – | –
Fc1ccc(-c2cncc3[nH]c(-c4n[nH]c5cnc(-c6cncc(CN7CCCC7)c6)cc45)nc23)s1 | 81 | 470 | 8 | 3000 | – | – | – | – | – | –
CN1CCN(c2cc(C(=O)Nc3cc4cc(-c5cncs5)ccc4cn3)ccn2)CC1 | 100 | – | – | 423 | – | – | – | 22.3 | – | –
CN1CCC(n2cc(NC(=O)c3n[nH]c4ccc(-c5cnn(C)c5)cc34)cn2)CC1 | 100 | 79 | 1 | 818 | – | – | – | – | – | –
CC(C)CC(=O)Nc1cncc(-c2ccc3[nH]nc(-c4nc5c(-c6cccnc6)cncc5[nH]4)c3c2)c1 | 100 | 12 | 12 | 111 | – | 198 | – | – | 100 | –
O=C(Nc1cccnc1)c1n[nH]c2ccc(-c3cncc(CN4CCS(=O)(=O)CC4)c3)cc12 | 8.6 | 210 | 2 | 616 | – | – | – | – | – | –
COc1cncc(C#Cc2c[nH]nc2C(=O)Nc2ccc(OC3CCN(C)CC3)nc2)c1 | 3.4 | 3570 | 9 | 3000 | > 10000 | – | – | – | – | –
Cc1n[nH]c2ccc(-c3cncc(NCC4(F)CNC4)n3)cc12 | 100 | 780 | 11 | 2270 | – | – | – | – | – | –
O=C(Nc1cncc(-c2ccc3[nH]nc(-c4nc5c(-c6cccc(F)c6)cccc5[nH]4)c3n2)c1)C1CC1 | 70 | 1080 | > 10000 | 0.2 | > 10000 | – | – | – | – | –
CN1CCN(c2ccc(C(=O)N3CCN(c4cc(C(=O)Nc5cc6cc(-c7cnn(C)c7)ccc6cn5)ccn4)CC3)cn2)CC1 | – | – | – | 304 | – | – | 3 | – | – | –
CN(C)CCNc1cc(F)cc(-c2cccc3[nH]c(-c4n[nH]c5cnc(-c6cncc(NC(=O)C(C)(C)C)c6)cc45)cc23)c1 | – | 386 | 45 | – | 49 | – | 6 | 87.3 | 10 | –
O=C(CC1CCNCC1)Nc1cncc(-c2cnc3[nH]nc(-c4cc5c(-c6ccncc6)ccnc5[nH]4)c3c2)c1 | – | > 10000 | 21 | – | > 10000 | – | 11 | 26.7 | – | –
Cc1n[nH]c2ccc(-c3cncc(NC4CCNCC4)n3)cc12 | – | 256 | 9 | 1050 | 1420 | – | 1 | – | – | –
O=C(Nc1ccc(C(=O)N2CCCC2)nc1)c1n[nH]c2ccc(-c3cncc(CN4CCCCC4)c3)cc12 | 100 | 30 | 1 | 3000 | – | – | – | – | – | –
O=C(Nc1ccc(CN2CCCC2)cc1)c1n[nH]c2ccc(-c3cnn(C4CC4)c3)cc12 | 57 | 451 | 4 | 3000 | – | – | – | – | – | –
CN1CCC(Nc2ccc(NC(=O)c3n[nH]c4cc(F)c(-c5cnn(C)c5)cc34)cn2)CC1 | 100 | 230 | 2 | 1160 | – | – | – | – | – | –
CN1CCC(C(=O)Nc2cc3cc(-c4cnsc4)cnc3cn2)CC1 | – | > 10000 | – | 3000 | > 10000 | – | > 10000 | – | – | –

SMILES | Imax [1] [%] | EC50 [2] [nM] | EC50 [3] [nM] | EC50 [4] [nM] | EC50 [5] [nM] | Emax at 0.1 µM [6] [%] | EC50 [7] [nM] | Emax at 0.03 µM [8] [%] | EC50 [9] [nM] | Emax at 0.01 µM [10] [%]
NC(=O)c1ccc(NC(=O)c2n[nH]c3ccc(-c4cncc(CN5CCCCC5)c4)cc23)cn1 | 100 | 13 | 1 | 2220 | – | – | – | – | – | –
O=C(Nc1cncc(-c2ccc3[nH]nc(-c4nc5c(-c6cccs6)cccc5[nH]4)c3n2)c1)C1CC1 | 72 | 3380 | > 10000 | 6.7 | > 10000 | – | – | – | – | –
O=C(Nc1c[nH]nc1C(=O)Nc1cccnc1)c1cccnc1 | 100 | 20.5 | 12 | 38.9 | – | – | – | – | – | –
CO[C@H]1CC[C@H](C(=O)Nc2cc3cc(-c4cnn(C)c4CN4CCCCC4)ccc3cn2)CC1 | 0.2 | 471 | 2 | 3000 | – | – | – | – | – | –
COc1cncc(C(=O)Nc2c[nH]nc2C(=O)Nc2ccc3c(c2)CCNC3)c1 | 76 | 613 | 8 | 342 | – | – | – | – | – | –
CCCC(=O)Nc1cncc(-c2cc3c(-c4nc5c(-c6ccsc6)cncc5[nH]4)n[nH]c3cn2)c1 | – | 61.5 | 8 | – | 21 | – | 3 | 42 | – | –
Cc1n[nH]c2ccc(-c3cncc(O[C@H]4CCNC[C@@H]4F)n3)cc12 | – | 672 | 11 | – | 1720 | 44.9 | 1 | – | 100 | –
CCC(=O)Nc1cncc(-c2ccc3[nH]nc(-c4cc5c(N6CCCCC6)nccc5[nH]4)c3c2)c1 | – | 445 | 5 | – | 52 | – | 1 | 244 | 10 | –
CN1CCC(Oc2ccc3[nH]c(-c4n[nH]c5ccc(-c6cnn(C)c6)cc45)nc3c2)CC1 | 100 | 18.3 | 2 | 170 | – | – | – | – | – | –
CCCC(=O)Nc1cncc(-c2ccc3[nH]nc(-c4nc5c(N6CCCCC6)cncc5[nH]4)c3c2)c1 | 39 | 42 | 14 | 20.5 | – | – | – | 77.3 | – | –
CN(C)CCNc1cc(F)cc(-c2cccc3[nH]c(-c4n[nH]c5ccc(-c6cncc(CN7CCCCC7)c6)nc45)cc23)c1 | – | 1270 | 40 | – | 49 | – | 4 | 48.5 | – | –
Fc1cccc(-c2ccnc3[nH]c(-c4n[nH]c5ccc(-c6cncc(CN7CCC(F)(F)C7)c6)cc45)nc23)c1 | – | 19.1 | 80 | – | 90 | – | 21 | 85.8 | 10 | –
O=C(Nc1cc2cc(-c3cnco3)cnc2cn1)C1CCNCC1 | – | > 10000 | 40 | 35.8 | > 10000 | – | > 10000 | – | – | –
c1cncc(-c2ccc3[nH]nc(-c4nc5c(N6CCOCC6)cncc5[nH]4)c3c2)c1 | 100 | 23 | 2 | 13.6 | – | – | – | 90.4 | – | –
CC(C)(C)C(=O)Nc1cncc(-c2ccc3[nH]nc(-c4nc5c(-c6cccnc6)cncc5[nH]4)c3c2)c1 | 100 | 85.4 | 5 | 1100 | – | – | – | – | – | –
Cc1n[nH]c2ccc(-c3cncc(O[C@H]4CCNC[C@H]4F)n3)cc12 | – | 834 | 21 | – | 1760 | – | 5 | 54.2 | 30 | –
O=C(Nc1c[nH]nc1-c1nc2c(-c3cccc(F)c3)cccc2[nH]1)c1cccnc1 | 100 | 2.9 | 4 | 76.5 | – | – | – | – | – | –
CN(C)Cc1cncc(-c2cnc3[nH]nc(-c4cc5c(-c6cccc(F)c6)nccc5[nH]4)c3c2)c1 | – | 1170 | 91 | – | 74 | – | 4 | – | 10 | 110
O=C(N[C@H]1C[C@@H]1c1ccccc1)c1n[nH]c2ccc(-c3cncc(CN4CCCCC4)c3)cc12 | – | 1030 | 1 | 4 | 717 | – | 8 | – | – | –
COc1cncc(C#Cc2c[nH]nc2C(=O)Nc2ccc(OCCN3CCCC3)nc2)c1 | 2.4 | 1210 | 19 | 3000 | > 10000 | – | – | – | – | –
O=C(Nc1cncc(-c2ccc3[nH]nc(-c4nc5c(-c6ccccn6)ccnc5[nH]4)c3n2)c1)c1ccccc1 | 67 | > 10000 | > 10000 | 5.1 | > 10000 | – | – | – | – | –
O=C(Nc1c[nH]nc1C(=O)Nc1ccc(N2CCCC2)nc1)c1cncc(OC2CCNCC2)c1 | 80 | 2.5 | 9 | 3000 | – | – | – | – | – | –

Source: ChEMBL document CHEMBL4739717, “Methods of treating cartilage disorders through inhibition of clk and dyrk” (2020)
